The text below walks through data of US20230110378A1, “MONOBACTAM COMPOUND AND USE THEREOF” (EVOPOINT BIOSCIENCES CO., LTD., priority 2019, published 2023).

In brackets after ≈: the same amount, converted by molar mass.

In general, MIC refers to the smallest concentration in the dilution series that meets the test's criterion for growth inhibition. Usually AUC stands for the area under the concentration-time curve, a measure of exposure. High values mean high exposure, low ones low exposure. For orientation: clearance means a measure of how efficiently the substance is removed, as volume per time. Higher therefore signals a high capacity for elimination.

Data set [1] deals with Enterobacter cloacae HDBECL 30030. In words: Minimum inhibitory concentration (broth microdilution, CLSI). Type of data set: cell-based. The note with it: HDBECL30030. The gist of the method:
(§1)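 CLSI broth microdilution; inoculum 2×10^5 CFU/mL in 1.02×CAMHB; compounds 2-fold serial, top 16/32/64 μg/mL; 35 ± 2 °C, 20-24 h, ambient air; MIC scored visually from growth.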
For orientation: Dilution methods test growth across graded concentrations, often in twofold steps.

In data set [2] the test system is metallo-β-lactamase-expressing Acinetobacter baumannii strain ABA-0003YK. The description is as above. The data set is classed as cell-based. The note with it: read-out: MIC A. baumannii ABA-0003YK. Summed up:
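CLSI broth microdilution in 1.02×CAMHB at an inoculum of 2×10^5 CFU/mL. Compounds were 2-fold diluted from a top concentration of 16, 32 or 64 μg/mL. MIC was read visually after 20-24 h at 35±2 °C in normal atmosphere.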

For data set [3], the system named is Klebsiella pneumoniae HDBKP 9249. The description is as above. The data set is classed as cell-based. The note with it: HDBKP9249. The gist of the method:
as §1

The subject of data set [4] is Klebsiella pneumoniae HDBKP 9153. The data set is described as above. Conditions: HDBKP9153. Type of data set: cell-based. Summed up:
as §1

For data set [5], the system named is Escherichia coli HDBEC 30008. Described as above. Type of data set: cell-based. The note with it: HDBEC30008. Summed up: as §1
For data set [6], the system named is Escherichia coli HDBEC 30048. The data set is described as above. Type of data set: cell-based. Conditions: HDBEC30048. Summed up: as §1
The test system of data set [7] is Proteus mirabilis HDBPM 40. Described as above. The data set is classed as cell-based. The note with it: HDBPM40. The gist of the method: as §1
The subject of data set [8] is Klebsiella pneumoniae HDBKP 30006. The data set is described as above. Type of data set: cell-based. Conditions: HDBKP30006. The gist of the method:
as §1

The test system of data set [9] is Escherichia coli HDBEC 30016. Described as above. The data set is classed as cell-based. The note with it: HDBEC30016. Summed up: as §1
Data set [10] relates to Pseudomonas aeruginosa HDBPA 5679. The data set is described as above. The note with it: HDBPA5679. Type of data set: cell-based. Summed up: as §1
Data set [11] is described as follows: Pharmacokinetic evaluation of compounds in mice (tail vein injection). Type of data set: in vivo, Male CD-1 (ICR) mice. Conditions: CD-1 (ICR), mouse, male CD-1 mice, intravenous injection, dose 10 mg/kg, plasma. On the procedure:
Male CD-1 (ICR) mice were purchased and then acclimatized in this laboratory for at least 3 days. […] Blood samples were collected from the saphenous vein at 0.0833 h, 0.25 h, 0.5 h, 1 h, 2 h, 4 h, 8 h and 24 h following the tail vein injection administration. The volume of blood collection at each time point of the blood collection was about 30 μL. The blood samples were placed in centrifuge tubes containing anticoagulant EDTA-K2 and centrifuged at 3,200 g at 4° C. for 10 min, and then the upper plasma samples were collected and preserved in a freezer at −70±10° C. for later tests.
1) To 1.5 mL centrifuge tubes were added a 6 μL aliquot of an unknown sample, a standard curve, a quality control, a dilution quality control, single blank and double blank samples.
2) Each sample (except for the double blank sample) was treated with 120 μL of IS1-containing precipitant (the double blank sample was treated with 120 μL of pure MeOH for precipitation), and the mixtures were well mixed (for at least 15 s) using a vortexer and centrifuged at 12,000 g at 4° C. for 15 min.
3) 60 μL of the supernatants were transferred to a 96-well plate and centrifuged at 4° C. at 3220 g for 5 min, and 6 p L of the supernatants were injected for LC-MS/MS quantitative analysis.
1) The 1 h-plasma samples from the 3 mice were diluted 10-fold: 2 p L of the samples were added to 18 p L of blank matrix.
2) The 0.0833 h to 0.5 h-plasma samples from the 3 mice were diluted 100-fold: 18 μL of blank matrix was added to 2 p L of the samples to obtain 10-fold diluted samples. 2 μL of the 10-fold diluted samples were added to 18 p L of blank matrix to obtain 100-fold diluted analysis samples.
LC-MS/MS analysis conditions: chromatography column: ACQUITY UPLC HSS T3 (2.1×50 mm, 1.8 μm); column temperature: 50° C.; mobile phase A: a 0.1% aqueous solution of formic acid; mobile phase B: a 0.1% solution of formic acid in acetonitrile; flowrate: 0.65 mL/min. Internal standard: verapamil (100 ng/mL)
The concentration of the compounds in plasma was measured by LC-MS/MS (LC-MS/MS-AK_Q-Trap 6500). The pharmacokinetic software WinNonlin [version: Phoenix™ WinNonlin®6.3, manufacturer: Pharsight Corporation] was used to calculate pharmacokinetic parameters (V-Noncompartmental model 201).

`CC(C)(O/N=C(\C(=O)N[C@@H]1C(=O)N(S(=O)(=O)O)[C@@H]1CNC(=O)c1cc([C@@H]2CCN(C(=O)c3ccc(O)c(O)c3Cl)C2)no1)c1csc(N)n1)C(=O)O` [Compound I-27]: the minimum inhibitory concentration (MIC) is under 4 µg/mL in data set [1]; under 4 µg/mL in [2]; 4 to 8 µg/mL (≈ 5.09 to 10.2 µM) in data set [3]; under 4 µg/mL in data set [4]; under 4 µg/mL in [5]; under 4 µg/mL in data set [6]. The minimal inhibitory concentration (MIC) in data set [7] is under 4 µg/mL; in data set [8] it was 4 to 8 µg/mL (≈ 5.09 to 10.2 µM); in data set [9], under 4 µg/mL; in data set [10], under 4 µg/mL.

Turning to `C[n+]1cc(-c2ncc(C(=O)NC[C@@H]3[C@H](NC(=O)/C(=N\OC4(C(=O)O)CC4)c4csc(N)n4)C(=O)N3S(=O)(=O)O)s2)cn1CCCNC(=O)c1ccc(O)c(O)c1Cl` [Compound I-28], the MIC in data set [1], in [2], in data set [3], in data set [4], in data set [5] and in data set [6] was under 4 µg/mL throughout. In addition, the minimum inhibitory concentration (MIC) in data set [7] is under 4 µg/mL; in data set [8], 4 to 8 µg/mL; in data set [9], under 4 µg/mL; in data set [10] it was under 4 µg/mL.

On to `CC(C)(O/N=C(\C(=O)N[C@@H]1C(=O)N(S(=O)(=O)O)[C@@H]1CNC(=O)c1cnc([C@@H]2CCN(C(=O)c3ccc(O)c(O)c3Cl)C2)s1)c1csc(N)n1)C(=O)O` [Compound I-30], for which the MIC is under 4 µg/mL in data set [1]; under 4 µg/mL in [2]; 4 to 8 µg/mL (≈ 4.99 to 9.98 µM) in data set [3]; under 4 µg/mL in [4]; under 4 µg/mL in [5]; under 4 µg/mL in [6]. Further, the MIC in data set [7] was under 4 µg/mL; in data set [8] it was 4 to 8 µg/mL (≈ 4.99 to 9.98 µM); in [9], under 4 µg/mL; in data set [10] it was under 4 µg/mL.

For the molecule `C[C@H]1[C@H](NC(=O)/C(=N\OC(C)(C)C(=O)O)c2csc(N)n2)C(=O)N1S(=O)(=O)O` [Aztreonam, reference compound], the MIC in [1] is over 16 µg/mL; in data set [2], over 16 µg/mL; in data set [3], over 16 µg/mL; in data set [4], over 16 µg/mL; in data set [5], 8 to 16 µg/mL (≈ 18.4 to 36.7 µM); in [6], over 16 µg/mL. Further, the minimum inhibitory concentration (MIC) in data set [7] is 8 to 16 µg/mL (≈ 18.4 to 36.7 µM); in [8] it was over 16 µg/mL; in [9], over 16 µg/mL; in [10] it was over 16 µg/mL.

With `CC(C)(O/N=C(\C(=O)N[C@@H]1C(=O)N(S(=O)(=O)O)[C@@H]1CNC(=O)c1cc(C2CC[N+](C)(CCNC(=O)c3ccc(O)c(O)c3Cl)C2)no1)c1csc(N)n1)C(=O)O` (stereo partly drawn) [Compound I-32], the MIC in data set [1], in data set [2], in data set [3], in [4], in data set [5] and in data set [6] was under 4 µg/mL throughout. Also, the MIC in data set [7] is under 4 µg/mL; in [8], 8 to 16 µg/mL; in data set [9] it was 4 to 8 µg/mL; in data set [10] it was under 4 µg/mL.

With `Cc1c(O)c(=O)cc(C(=O)N2CC[C@@H](c3cc(C(=O)NC[C@@H]4[C@H](NC(=O)/C(=N\OC(C)(C)C(=O)O)c5csc(N)n5)C(=O)N4S(=O)(=O)O)on3)C2)n1O` [Compound I-43], the MIC in [1] is under 4 µg/mL; in data set [3] it was 8 to 16 µg/mL (≈ 10.2 to 20.5 µM); in data set [4], under 4 µg/mL; in [5], under 4 µg/mL; in data set [6] it was under 4 µg/mL; in data set [7], under 4 µg/mL. Also, the MIC in data set [8] was 8 to 16 µg/mL (≈ 10.2 to 20.5 µM); in data set [9] it was under 4 µg/mL; in data set [10] it was under 4 µg/mL. Moreover, the AUC in [11] was 9660 ng·h/mL. In addition, the clearance in data set [11] was found to be 17.3 mL/min/kg. Further, the half-life in [11] (read-out: T½ (converted)) is 35.4 min. Further, the Vd in data set [11] (read-out: Vss) worked out at 0.24 L/kg.
